Results reported in US20260335277A1, “CHLOROTONIL DERIVATIVES” (priority 2023, published 2026).
≈ marks a conversion by molar mass, not a printed value. Where “and” joins values, the source holds several entries; their conditions need not be identical. Equal values may be shown once. Entries after “also recorded” stand apart in the source; their conditions may differ. Read-outs that look alike come from different tables or passages of the source.

Tests used:
Metabolic stability = type: in vitro ADME; conditions: for microsomal CLint: liver microsomes, read-out: microsomal clearance
Protocol: (§1) Complementing the toxicity profiling, ADME properties of the lead dehalogenil were determined. This had not been possible for the first generation frontrunner ChB1-Epo2 or the natural product ChA because of their poor limit of detection. […] Across species (mouse, rat, human), metabolic stability is high while plasma stability is moderate. Besides, no hemolysis and no inhibition of the metabolically important enzyme CYP3A4 was observed by both dehalogenil and ChA. Plasma protein binding (PPB) is >99.4% in all species.

S. aureus USA300LAC = test: S. aureus blood infection (sepsis) model; type: in vivo, mouse (CD-1); conditions: for survival: BID, until 3 days post infection
Protocol: Dehalogenil was further tested in a Staphylococcus blood infection (sepsis) model, alongside linezolid as reference compound. Mice were infected using S. aureus USA300LAC (10^8 CFU/animal) and subsequently treated with a daily total of 5, 10 or 25 mg/kg SC dehalogenil, split into two doses (8 h interval, BID regimen) until 3 days post infection.
Mice were infected intravenously using S. aureus USA300LAC (10^8 CFU/mice). Compounds were administered twice daily starting day 0 until day 3, with the daily total dose indicated. Curves were compared via Mantel-Cox test (Prism), with ***: p<0.001 and **: p<0.01.

CYP3A4 = test: Inhibition of CYP3A4; type: in vitro ADME
Protocol: as §1

Inhibition of CYP3A4 = type: in vitro ADME; conditions: cyp3a4
Protocol: as §1

P. berghei = P. berghei parasite load in mice; type: in vivo, mouse
[1] = Plasma protein binding (PPB); type: in vitro ADME, rat
Protocol: as §1

Aqueous solubility = type: physicochemical; conditions: for solubility thermodynamic: read-out: semi thermodynamic solubility
Protocol: as §1

S. aureus = test: Murine foreign body (catheter) infection model; type: in vivo, mouse
Protocol: In a murine model, infected catheter tubings were implanted under the rodent skin followed by subcutaneous treatment (once per day with 25 mg/kg for six days).
The infection was established using a bacterial inoculum of 1×10^4 colony-forming units (CFU) injected into the lumen of the implanted peripheral venous catheter tubing fragment. Dehalogenil (25 mg/kg) was administered s.c. once per day, starting at 3 h post infection. Linezolid (Zyvoxid, Pfizer) was used as a reference antibiotic. Six days post infection, mice were euthanized, edema sizes around the implanted catheter fragment determined (c), and the catheter fragments and surrounding tissues were explanted. Bacterial loads from catheter detached biofilms (a) and in surrounding tissue homogenates (b) were determined by CFU counting. The data represent the value of every individual animal (symbols) and the median (horizontal lines). […], **p<0.01, ***p<0.001 (Kruskal-Wallis tests followed by Dunn's post hoc test).

[2] = Plasma protein binding (PPB); type: in vitro ADME
Protocol: as §1

zebrafish larvae = test: Toxicity in zebrafish larvae (MTC / IC50); type: in vivo
Protocol: For toxicity screening, zebrafish larvae were exposed three days post fertilization and monitored for 48 h until five days post fertilization. All malformations and pathophysiological phenotypes were noted and used to determine the inhibitory concentration (IC50) of the respective derivative against zebrafish larvae. The selectivity index (SI) was then calculated using the IC50 and the MIC of either S. aureus or P. falciparum 3D7.

[3] = 25 mg/kg SC once per day, six days

CC1=CC(C)C2C(C=CC3C(C)C=CC=CC(C)OC(=O)C(C)C(=O)CC(=O)C32)C1 (stereo not drawn) [dehalogenil]
metabolic stability (Metabolic stability; human): high | microsomal CLint (Metabolic stability; human): 6.4 µL/min/mg | metabolic stability (Metabolic stability; mouse): high | microsomal CLint (Metabolic stability; mouse): 6.4 µL/min/mg | metabolic stability (Metabolic stability; rat): high | microsomal CLint (Metabolic stability; rat): 14 µL/min/mg | survival (S. aureus USA300LAC; 10 mg/kg daily total SC): 80% | survival (S. aureus USA300LAC; 25 mg/kg daily total SC): 90% | survival rates compared to linezolid (S. aureus USA300LAC; 10 and 25 mg/kg SC vs linezolid 60 mg/kg): increased survival rates comparable to a higher dose of linezolid | inhibition of CYP3A4 (CYP3A4): no inhibition | IC50 (Inhibition of CYP3A4): 16.4 µM | reduction of P. berghei parasite load (P. berghei): > 99% | fraction unbound ([1]; plasma, all species: rat): < 0.006 | plasma protein binding ([1]; rat): >99.4% | solubility thermodynamic (Aqueous solubility; pH 5.0): 34.9 ± 2.7 µM (≈ 14.3 µg/mL) | solubility thermodynamic (Aqueous solubility; pH 7.4): 41.4 ± 10.3 µM (≈ 17 µg/mL) | Solubility increase compared to the natural product ChA (Aqueous solubility; pH 7.4, vs ChA): more than 500 fold | solubility thermodynamic (Aqueous solubility; pH 9.0): 16.5 ± 8.7 µM (≈ 6.77 µg/mL) | Solubility compared to ChB1-Epo2 (Aqueous solubility; vs ChB1-Epo2, aqueous): more than doubled; also recorded: doubled aqueous solubility | reduction in bacterial loads in the tissues surrounding the catheter fragments (S. aureus; [3]): > 3 log10 and 3.24 log10 | reduction in bacterial loads on the catheter fragments (S. aureus; [3]): > 3 log10 and 3.85 log10 | bacterial load at the site of infection and on the implant (S. aureus; 6×25 mg/kg SC): significantly reducing bacterial loads | fraction unbound ([2]; human, all species: human, read-out: Plasma protein binding (PPB)): < 0.006 | fraction unbound ([2]; human, read-out: plasma protein binding): < 0.004 | fraction unbound ([2]; mouse, all species: mouse, read-out: Plasma protein binding (PPB)): < 0.006 | fraction unbound ([2]; mouse, read-out: plasma protein binding): < 0.002 | toxic effects in zebrafish (zebrafish larvae; 5-10 μg/mL): no toxic effects | IC50 in zebrafish larvae (zebrafish larvae; exposed 3 days post fertilization, monitored 48 h): 27.4 µM | Selectivity Index S. aureus (zebrafish larvae; zebrafish IC50 / MIC S. aureus Newman): 224.8 | Selectivity Index P. falc 3D7 (zebrafish larvae; zebrafish IC50 vs P. falciparum 3D7): 5479.6
